Data set [1] in a line: Half life in simulated gastric fluid. It is filed as physicochemical.
The subject of data set [2] is Rattus norvegicus. Put plainly: Prodrug activation in rat liver assessed as beta-D-2'-deoxy-2'-alpha-fluoro-2'-beta-C-methylguanosine monophosphate level at 40 mg/kg, po administered QD as repeated dose measured at 4 hrs post-dosing on day 8. Type of data set: organism-based. Set-up: dose 40 mg/kg, route oral. The note with it: in vivo.
The nature of data set [3]: AUC (infinity) in rat at 40 mg/kg, po administered QD measured after 7 days. Set-up: time infinity, dose 40 mg/kg, route oral. The note with it: plasma. Type of data set: ADME, organism-based.
Data set [4] can be described thus: Half life in rat at 40 mg/kg, po administered QD measured after 1 day. It is filed as ADME, organism-based. The note with it: in vivo. The arrangement: dose 40 mg/kg, route oral.
The test system of data set [5] is Rattus norvegicus. In words: Prodrug conversion in rat liver assessed as beta-D-2'-deoxy-2'-alpha-fluoro-2'-beta-C-methylguanosine triphosphate level at 40 mg/kg, po administered QD as repeated dose measured at 4 hrs post-dosing on day 8. Type of data set: ADME, organism-based. Set-up: dose 40 mg/kg, route oral. The note with it: in vivo.
Data set [6] has as its system Hepatitis C virus. Put plainly: Antiviral activity against Hepatitis C virus genotype 1b replicon infected in clone A cells assessed as inhibition of viral replication by RT-PCR analysis. Type of data set: functional, Hepacivirus hominis.
Data set [7] is described as follows: Tmax in rat at 40 mg/kg, po administered QD measured after 1 day. It is filed as ADME, organism-based. The note with it: in vivo. The arrangement: dose 40 mg/kg, route oral.
Data set [8] is described as follows: AUClast in rat at 40 mg/kg, po administered QD measured after 1 day. It is filed as ADME, organism-based. The arrangement: dose 40 mg/kg, route oral. To be noted: plasma.
The subject of data set [9] is Rattus norvegicus. Put plainly: Prodrug activation in rat liver assessed as beta-D-2'-deoxy-2'-alpha-fluoro-2'-beta-C-methylguanosine diphosphate level at 40 mg/kg, po administered QD as repeated dose measured at 4 hrs post-dosing on day 8. Type of data set: organism-based. Set-up: dose 40 mg/kg, route oral. The note with it: in vivo.
For another data set, the system named is BXPC-3. In words: Cytotoxicity against human BxPC3 cells up to 100 uM after 8 days by MTT assay. It is filed as cell-based. The note with it: bxpc-3, 192 h. Background: Formazan colour is commonly taken as a measure of viable cells.
In data set [10] the test system is Rattus norvegicus. In words: Tlast in rat at 40 mg/kg, po administered QD measured after 7 days. It is filed as ADME, organism-based. Set-up: dose 40 mg/kg, route oral. The note with it: in vivo, 168 h.
Data set [11] is described as follows: Cytotoxicity against human HuH7 cells. It is filed as cell-based. To be noted: Huh-7 cells.
Data set [12] deals with Rattus norvegicus. In words: Tlast in rat at 40 mg/kg, po administered QD measured after 1 day. Type of data set: ADME, organism-based. The arrangement: dose 40 mg/kg, route oral. To be noted: in vivo, 24 h.
The subject of data set [13] is HepG2. Put plainly: Mitochondrial toxicity against human HepG2 cells assessed as decrease in mitochondrial COX2 DNA up to 100 uM after 14 days by RT-PCR analysis. The note with it: hepg2, 336 h. It is filed as cell-based.
Data set [14] can be described thus: Half life in rat at 40 mg/kg, po administered QD measured after 7 days. It is filed as ADME, organism-based. Set-up: dose 40 mg/kg, route oral. To be noted: in vivo.
Data set [15] deals with Hepatitis C virus. Put plainly: Ratio of PSI-352938 EC90 to compound EC90 for Hepatitis C virus genotype 1b infected in clone A cells. It is filed as functional, Hepacivirus hominis.
Data set [16] in a line: AUC (infinity) in rat at 40 mg/kg, po administered QD measured after 1 day. Type of data set: ADME, organism-based. Set-up: time infinity, dose 40 mg/kg, route oral. To be noted: plasma.
Data set [17] concerns Hepatitis C virus. In words: Antiviral activity against Hepatitis C virus expressing NS5B S282T mutant by cell-based replicon assay. Type of data set: functional, Hepacivirus hominis.
In data set [18] the test system is Huh-7. In words: Cytotoxicity against human HuH7 cells up to 100 uM after 8 days by MTT assay. Type of data set: cell-based. To be noted: huh-7, 192 h.
The test system of data set [19] is CCRF-CEM. In words: Mitochondrial toxicity against human CEM cells assessed as decrease in ribosomal DNA up to 100 uM after 14 days by RT-PCR analysis. To be noted: 336 h. It is filed as cell-based.
Data set [20] is described as follows: Half life in human liver S9 fraction. It is filed as ADME, subcellular.
Data set [21] deals with Rattus norvegicus. In words: Prodrug activation in rat liver assessed as free nucleoside level at 40 mg/kg, po administered QD as repeated dose measured at 4 hrs post-dosing on day 8. The note with it: in vivo. Set-up: dose 40 mg/kg, route oral. It is filed as organism-based.
A further data set concerns Hepatocyte. In words: Prodrug activation in human primary hepatocytes assessed as assessed as Tmax of beta-D-2'-deoxy-2'-alpha-fluoro-2'-beta-C-methylguanosine triphosphate level at 100 uM. Type of data set: cell-based, Liver.
The subject of data set [22] is HepG2. In words: Mitochondrial toxicity against human HepG2 cells assessed as decrease in ribosomal DNA up to 100 uM after 14 days by RT-PCR analysis. It is filed as cell-based. The note with it: hepg2, 336 h.
Data set [23] can be described thus: Cmax in rat at 40 mg/kg, po administered QD measured after 7 days. The note with it: in vivo. Type of data set: ADME, organism-based. Set-up: dose 40 mg/kg, route oral.
The nature of data set [24]: Tmax in rat at 40 mg/kg, po administered QD measured after 7 days. The arrangement: dose 40 mg/kg, route oral. The note with it: in vivo. It is filed as ADME, organism-based.
Data set [25] concerns Hepatitis C virus. In words: Antiviral activity against Hepatitis C virus genotype 1b replicon infected in Lunet cells by luciferase reporter gene assay. Type of data set: functional, Hepacivirus hominis. (A replicon is a self-replicating genome or part of one, used to study replication in cells.)
The nature of data set [26]: Cmax in rat at 40 mg/kg, po administered QD measured after 1 day. Type of data set: ADME, organism-based. The arrangement: dose 40 mg/kg, route oral. The note with it: in vivo.
Data set [27] is described as follows: AUClast in rat at 40 mg/kg, po administered QD measured after 7 days. It is filed as ADME, organism-based. The arrangement: dose 40 mg/kg, route oral. To be noted: plasma.
Data set [28] in a line: Half life in human plasma. Type of data set: ADME, cell-free.
Data set [29] has as its system Rattus norvegicus. Put plainly: Prodrug activation in rat liver assessed as total nucleotide level at 40 mg/kg, po administered QD as repeated dose measured at 4 hrs post-dosing on day 8. Type of data set: organism-based. Set-up: dose 40 mg/kg, route oral. To be noted: in vivo.
Data set [30] concerns HepG2. In words: Cytotoxicity against human HepG2 cells up to 100 uM after 8 days by MTT assay. To be noted: hepg2, 192 h. Type of data set: cell-based.
For data set [31], the system named is Huh-7. Put plainly: Prodrug activation in human HuH7 cells infected with HCV genotype 1b assessed as Tmax of beta-D-2'-deoxy-2'-alpha-fluoro-2'-beta-C-methylguanosine triphosphate level at 100 uM. It is filed as cell-based. The note with it: huh-7, 100 µM.
The test system of data set [32] is CCRF-CEM. Put plainly: Mitochondrial toxicity against human CEM cells assessed as decrease in mitochondrial COX2 DNA up to 100 uM after 14 days by RT-PCR analysis. Type of data set: cell-based. To be noted: 336 h.
The nature of data set [33]: Half life in simulated intestinal fluid. It is filed as physicochemical.
Data set [34] is described as follows: Half life in rat plasma. It is filed as ADME, cell-free.
Data set [35] has as its system CCRF-CEM. In words: Cytotoxicity against human CEM cells up to 100 uM after 8 days by MTT assay. It is filed as cell-based. To be noted: 192 h.
In data set [36] the test system is Hepatitis C virus. Put plainly: Antiviral activity against Hepatitis C virus infected in po dosed human assessed as log reduction in viral load. Type of data set: functional, Hepacivirus hominis.

Molecules are shown by their SMILES. Bounds are passed on as bounds.

The term half-life denotes how long it takes for the measured level to halve. Lower therefore signals fast loss. Broadly, the AUC(0-inf) is the area under the concentration-time curve extrapolated to infinity. A higher AUC(0-inf) goes with more exposure. What is called EC90 is the concentration needed for an effect of 90%. As a reminder, the Tmax is the time at which the peak concentration occurs. By AUC(0-t) is commonly meant exposure summed from dosing to a finite time, without extrapolation to infinity. The low end stands for less exposure, the high end for more exposure. The Cmax is the peak of the concentration-time curve. In the case of `COc1nc(N)nc2c1ncn2[C@@H]1O[C@@H]2COP(=O)(OC3CCCC3)O[C@H]2[C@@]1(C)F` (stereo partly drawn), the half-life in data set [1] was 9.2 h; in [4] it was 1.8 h; in data set [14] it was 0.93 h; in [20] it was 20 h; in data set [28] it was greater than 24 h; in data set [33], 14 h. For the same molecule, in data set [34], the half-life is 22 h. In addition, the Drug metabolism in the data set with Rattus norvegicus [2] is 26.6 nmol/g; in the data set with Rattus norvegicus [5] it was 3.78 nmol/g; in the data set with Rattus norvegicus [9], 31 nmol/g; in the data set on Rattus norvegicus [21], 21.28 nmol/g; in the data set with Rattus norvegicus [29], 61.37 nmol/g. Further, the total exposure AUC(0-inf) in data set [3] came out at 510 ng·h/mL; in [16], 690 ng·h/mL. The concentration for an effect of 90% (EC90) in the data set with Hepatitis C virus [6] was found to be 102 nM; in the data set with Hepatitis C virus [17] it was 27 nM; with Hepatitis C virus [25], 37 nM. Also, the Tmax in data set [7] was 1.67 h; in the data set on Hepatocyte, 8 h; in data set [24], 1.67 h; in the data set with Huh-7 [31], 72 h. In [8], this molecule gave an AUC(0-t) at 24 h of 660 ng·h/mL. The Activity entry in the data set with BXPC-3, in the data set with HepG2 [13], with Huh-7 [18], with CCRF-CEM [19], in the data set on HepG2 [22] and in the data set with HepG2 [30] was “Non-toxic” in each case. For the same molecule, the Activity result with CCRF-CEM [32] and in the data set on CCRF-CEM [35] was “Non-toxic” each time. The Tlast with Rattus norvegicus [10] and in the data set with Rattus norvegicus [12] was 7.33 h each time. In addition, the CC90 in [11] is greater than 100000 nM. The Ratio result in the data set with Hepatitis C virus [15] is “>=10”. Further, the Cmax in data set [23] is 120 ng/mL; in data set [26] it was 160 ng/mL. Further, in data set [27], the AUC(0-t) at 168 h amounted to 510 ng·h/mL.

With `CCOc1nc(N)nc2c1ncn2[C@@H]1O[C@@H]2COP(=O)(OC(C)C)O[C@H]2[C@@]1(C)F` (stereo partly drawn) [PSI-352938], the half-life in data set [1] was greater than 20 h; in data set [20] it was greater than 24 h; in data set [28], greater than 24 h; in [33], greater than 20 h; in [34], greater than 24 h. The EC90 is 1370 nM in the data set with Hepatitis C virus [6] and 740 nM in the data set with Hepatitis C virus [25]. The molecule further registered a CC90 in data set [11] greater than 100000 nM. Further, the time to peak (Tmax) in the data set with Hepatocyte amounted to 24 h; in the data set with Huh-7 [31], 96 h. For the same molecule, the Activity with Hepatitis C virus [36] is greater than 5 log10IU/ml.

Values taken from ChEMBL document CHEMBL2157997, “β-D-2'-α-F-2'-β-C-Methyl-6-O-substituted 3',5'-cyclic phosphate nucleotide prodrugs as inhibitors of hepatitis C virus replication: a structure-activity relationship study” (Bioorg Med Chem Lett, 2012).
